These results are taken from patent US20020061888A1, “Combination therapy for the prophylaxis and treatment of hyperlipidemic conditions and disorders” (priority 2000, published 2002).

Type in all cases: in vivo
The subject of test [1] is Male beagle dogs. The test can be described thus: Serum total cholesterol in beagle dogs (serum lipid measurements). The settings on record: pravastatin 16.0 mg/kg/day, Week 3, mean ± SEM, n = 6.
For test [2], the system named is Male beagle dogs. Put plainly: Fecal bile acid concentration in beagle dogs (enzymatic 3α-hydroxysteroid dehydrogenase assay of fecal extracts). The note with it: pravastatin monotherapy 10 mg/kg/day; for FECAL BILE ACID CONCENTRATION: n = 6. The protocol: Male beagle dogs (9-10 kg) obtained from Marshall farms were fed a normal chow diet once a day for a two hour interval and given water ad libitum. Prior to initiating treatment, the dogs were weighed and blood samples were drawn from the cephalic vein of each dog following an overnight fast to evaluate pretreatment serum total cholesterol levels at the start of the study. […] All doses were administered in gelatin capsules per os to each dog between 9:00-9:30 a.m. prior to feeding. All animals were fed between 9:30-10:00 a.m. and were allowed two hours to eat, at which time any remaining food was removed. […] Three consecutive 24 hour fecal samples were collected for each group during the last 72 hours of each week and used to measure the concentration of fecal biles acids excreted during that time period.
Fecal samples were collected to determine the fecal bile acid (“FBA”) concentration for each animal. Three consecutive 24 hour fecal samples were collected between 8:00 a.m. and 9:00 a.m. each day, prior to dosing and feeding, during the last 72 hour period of each week. The separate daily collections from each dog were weighed, combined and homogenized with distilled water in a food processor to generate a homogeneous slurry. A 1.4 g sample of fecal homogenate was extracted with 2.6 mL of a solution containing tertiary butanol:distilled water in the ratio of 2:0.6 (final concentration of 50% tertiary butanol v/v distilled water) for 45 minutes in a 37° C. water bath and centrifuged for 13 minutes at 2000 x g. The concentration of bile acids (μmoles/gram homogenate) was determined using a 96-well enzymatic assay system described in van der Meer et al., “t-Butanol Extraction of Feces: A Rapid Procedure For Enzymic Determination Of Fecal Bile Acids”, Cholesterol, Metabolism in Health and Disease: Studies in the Netherlands, edited by Beynen, et al., Ponsen and Looyen, Wageningen, 1985; and Turley et al., “Re-evaluation of the 3 Alpha-Hydroxysteroid Dehydrogenase Assay For Total Bile Acids In Bile”, J. Lipid Research, 19:924-928, 1978.
A 20 μL aliquot of each fecal extract was added to each of two sets of triplicate wells in a 96-well assay plate. A standardized sodium taurocholate solution and a standardized fecal extract solution (previously made from pooled samples and characterized for its bile acid concentration) were also analyzed for assay quality control. A standard curve of five points containing 30-540 nmoles/well was generated by serial dilutions of an initial 20 μL aliquot of 90 mM sodium taurocholate. A 230 μL aliquot of a reaction mixture containing 1M hydrazine hydrate, 0.1 M pyrophosphate and 0.46 mg/ml NAD was added to each well. Subsequently, a 50 μL aliquot of either 3α-hydroxysteroid dehydrogenase (“HSD”) enzyme (0.8 units/mL) or assay buffer (0.1 M sodium pyrophosphate) was then added to one each of the two sets of triplicates. Following 60 minutes of incubation at room temperature, the optical density at 340 nm was measured and the mean of each set of triplicate samples was calculated. The difference in optical density with and without HSD enzyme was used to determine the bile acid concentration (mM) of each sample based on the sodium taurocholate standard curve. The bile acid concentration of the extract (μmoles/gram homogenate), the total weight of the fecal homogenate (grams) and the body weight of the dogs (kg) were used to calculate the corresponding fecal bile acid concentration in μtmoles/kg/day for each animal.
All reagents used for the assay were obtained from Sigma Chemical Co., St. Louis, Mo. (HSD enzyme—catalog # H-1506; NAD—catalog # N1636; sodium taurocholate—catalog # T-4009).

Test [3] deals with Male beagle dogs. The test can be described thus: Serum triglyceride in beagle dogs. The note with it: n = 6. The protocol:
Following this initial four week dose-ranging study, dogs from the two groups receiving 10 mg/kg/day pravastatin (a.m. and p.m. dosing groups) were randomized into two new treatment groups based on serum total cholesterol levels to initiate the combination treatment study. […] Dosing continued in this manner for an additional four weeks (Weeks 5-8) with blood and 48-hour fecal samples collected at the end of each week for serum lipid measurements and fecal bile acid determinations, respectively. […] At the end of this three-week period, pravastatin dosing and all empty capsule dosing were discontinued and blood samples were collected weekly for a final three weeks (weeks 12-14) to monitor the return of serum total cholesterol levels back to baseline.
Blood was collected from the cephalic vein of each dog into serum separator tubes. The blood was centrifuged at 900×g for 20 minutes at room temperature and the serum decanted. All analyses were performed on a Cobas Mira Clinical Analyzer System (Roche Diagnostic Systems, Branchburg, N.J.) using Roche Diagnostic reagents for enzymatic determinations of serum cholesterol and triglycerides. Commercial calibrator and quality control materials were analyzed with each run to verify assay accuracy and precision. A two-tailed, paired Students t-test was used to determine the statistical significance of changes in total serum cholesterol in treated animals compared to their pretreatment values. A two-sample, two-tailed unequal variance Students t-test was used to determine serum total cholesterol and triglyceride changes in the combination therapy group compared to the monotherapy groups. […]

On to `CC[C@H](C)C(=O)O[C@H]1C[C@H](O)C=C2C=C[C@H](C)[C@H](CC[C@@H](O)C[C@@H](O)CC(=O)O)[C@H]21` [pravastatin, Pravastatin], for which the “SERUM TOTAL CHOLESTEROL” value in test [1] is given as 134 ± 13^2 mg/dL. Further, the “% change in fecal bile acid concentration from Week 0” value in test [2] (Week 5) is listed as “(−54) %”; in test [2] (Week 6), “(−38) %”; in test [2] (Week 7), “(−19) %”; in test [2] (Week 8), “(−30) %”; in test [2] (Week 9), “(−24) %”; in test [2] (Week 10) it was “(−24) %”. The “FECAL BILE ACID CONCENTRATION” value in test [2] (Week 5, mean ± SEM) was determined as 17 ± 5 µmol/kg/day; in test [2] (Week 6, mean ± SEM) it was 23 ± 7 µmol/kg/day; in test [2] (Week 7, mean ± SEM), 30 ± 6 µmol/kg/day; in test [2] (Week 8, mean ± SEM), 26 ± 9 µmol/kg/day; in test [2] (Week 9, mean ± SEM), 28 ± 5 µmol/kg/day; in test [2] (Week 10, mean ± SEM), 28 ± 6 µmol/kg/day. Also, the “TOTAL SERUM TRIGLYCERIDE” value in test [3] (pravastatin monotherapy 10 mg/kg/day, dosed Weeks 1-11, Week 4, mean ± SEM) is 30 ± 4 mg/dL; in test [3] (pravastatin monotherapy 10 mg/kg/day, dosed Weeks 1-11, Week 5, mean ± SEM), 34 ± 3 mg/dL; in test [3] (pravastatin monotherapy 10 mg/kg/day, dosed Weeks 1-11, Week 6, mean ± SEM), 35 ± 4 mg/dL; in test [3] (pravastatin monotherapy 10 mg/kg/day, dosed Weeks 1-11, Week 7, mean ± SEM) it was 37 ± 3 mg/dL; in test [3] (pravastatin monotherapy 10 mg/kg/day, dosed Weeks 1-11, Week 8, mean ± SEM), 38 ± 5 mg/dL; in test [3] (pravastatin monotherapy 10 mg/kg/day, dosed Weeks 1-11, Week 9, mean ± SEM), 34 ± 2 mg/dL. In addition, the “TOTAL SERUM TRIGLYCERIDE” value in test [3] (pravastatin monotherapy 10 mg/kg/day, dosed Weeks 1-11, Week 11, mean ± SEM) was 33 ± 3 mg/dL; in test [3] (pravastatin monotherapy group, dosing terminated after Week 11, Week 12, mean ± SEM), 46 ± 4 mg/dL; in test [3] (pravastatin monotherapy group, dosing terminated after Week 11, Week 13, mean ± SEM) it was 44 ± 3 mg/dL; in test [3] (pravastatin monotherapy group, dosing terminated after Week 11, Week 14, mean ± SEM), 40 ± 4 mg/dL.
